This passage reports MIC, MBC and MFC results from ChEMBL document CHEMBL1221283, “Antimicrobial phenolic abietane diterpene from Lycopus europaeus L. (Lamiaceae)” (2010).

Values after ≈ are worked out from the molar mass of the structure shown. Where only a bound is given, the exact number is not on record here.

Holding throughout (type): functional
The test system of one test is Acremonium chrysogenum. Nature of the test: Antifungal activity against Acremonium chrysogenum isolates after 48 hrs by broth microdilution method. The conditions noted are these: Hapsidospora chrysogena.
A further test deals with Candida albicans. Nature of the test: Antifungal activity against Candida albicans ATCC 10231 after 48 hrs by broth microdilution method. A general note: In broth dilution the organism is exposed to a series of concentrations in liquid medium.
A further test deals with Saccharomyces cerevisiae. Nature of the test: Antifungal activity against Saccharomyces cerevisiae ATCC 9763 after 48 hrs by broth microdilution method.
In the next test the test system is Aspergillus restrictus. Nature of the test: Antifungal activity against Aspergillus restrictus isolates after 48 hrs by broth microdilution method.
For another test, the system named is Aspergillus fumigatus. As to the kind of experiment: Antifungal activity against Aspergillus fumigatus isolates after 48 hrs by broth microdilution method.
A further test concerns Penicillium chrysogenum. As to the kind of experiment: Antifungal activity against Penicillium chrysogenum isolates after 48 hrs by broth microdilution method.
The test system of test [1] is Escherichia coli. As to the kind of experiment: Antibacterial activity against Escherichia coli clinical isolate after 24 hrs by broth microdilution method.
In a further test the test system is Salmonella enterica. As to the kind of experiment: Antibacterial activity against Salmonella enterica ATCC 13076 after 24 hrs by broth microdilution method. Conditions: ATCC 13076, 24 h.
In another test the test system is Micrococcus luteus. Nature of the test: Antibacterial activity against Sarcina lutea food isolate after 24 hrs by broth microdilution method.
Another test has as its system Proteus vulgaris. As to the kind of experiment: Antibacterial activity against Proteus vulgaris ATCC 8427 after 24 hrs by broth microdilution method. Conditions: ATCC 8427, 24 h.
For test [2], the system named is Staphylococcus aureus. As to the kind of experiment: Antibacterial activity against Staphylococcus aureus ATCC 6538 after 24 hrs by broth microdilution method. Conditions: ATCC 6538, 24 h.
Test [3] has as its system Klebsiella pneumoniae. As to the kind of experiment: Antibacterial activity against Klebsiella pneumoniae clinical isolate after 24 hrs by broth microdilution method.
The subject of test [4] is Escherichia coli. As to the kind of experiment: Antibacterial activity against Escherichia coli ATCC 25922 after 24 hrs by broth microdilution method. The conditions noted are these: ATCC 25922, 24 h.
For the next test, the system named is Bacillus cereus. As to the kind of experiment: Antibacterial activity against Bacillus cereus food isolate after 24 hrs by broth microdilution method.
The next test has as its system Pseudomonas aeruginosa. Nature of the test: Antibacterial activity against Pseudomonas aeruginosa ATCC 9027 after 24 hrs by broth microdilution method. The conditions noted are these: ATCC 9027, 24 h.
Test [5] has as its system Klebsiella pneumoniae. Nature of the test: Antibacterial activity against Klebsiella pneumoniae ATCC 10031 after 24 hrs by broth microdilution method. Conditions: ATCC 10031, 24 h.
Test [6] concerns Staphylococcus aureus. As to the kind of experiment: Antibacterial activity against Staphylococcus aureus ATCC 25923 after 24 hrs by broth microdilution method. The conditions noted are these: ATCC 25923, 24 h.
For test [7], the system named is Escherichia coli. Nature of the test: Antibacterial activity against Escherichia coli food isolate after 24 hrs by broth microdilution method.
A further test deals with Trueperella pyogenes. Nature of the test: Antibacterial activity against Corynebacterium pyogenes ATCC 19411 after 24 hrs by broth microdilution method. The conditions noted are these: ATCC 19411, 24 h.
The subject of another test is Bacillus subtilis. Nature of the test: Antibacterial activity against Bacillus subtilis ATCC 6633 after 24 hrs by broth microdilution method. The conditions noted are these: ATCC 6633, 24 h.
The subject of test [8] is Staphylococcus aureus. As to the kind of experiment: Antibacterial activity against Staphylococcus aureus food isolate after 24 hrs by broth microdilution method.

In general, MIC refers to the lowest concentration that inhibits growth of the organism. For NYSTATIN, the MIC amounted to 0.195 µg/mL with Acremonium chrysogenum; 6.25 µg/mL with Candida albicans; 12.5 µg/mL with Saccharomyces cerevisiae; 0.781 µg/mL in the test with Aspergillus restrictus; 0.195 µg/mL against Aspergillus fumigatus; 0.39 µg/mL in the test on Penicillium chrysogenum.
Broadly, the MBC is the smallest concentration meeting the test's criterion for killing. The low end stands for greater bactericidal potency, the high end for weaker bactericidal potency. One may read the MFC as the smallest concentration meeting the test's criterion for killing the fungus. For `COC(=O)[C@]1(C)CC[C@H](OC(C)=O)[C@]2(C)c3c(O)cc(C(C)C)cc3[C@H](O)[C@@H](OC(C)=O)[C@H]21` [EUROABIENOL], the minimal bactericidal concentration (MBC) in the test on Escherichia coli [1] was 716 µg/mL (≈ 1550 µM); against Salmonella enterica, 1430 µg/mL (≈ 3100 µM); against Micrococcus luteus, 179 µg/mL (≈ 387 µM); in the test with Proteus vulgaris, 5740 µg/mL (≈ 12400 µM); in the test on Staphylococcus aureus [2] it was 2870 µg/mL (≈ 6200 µM); in the test on Klebsiella pneumoniae [3], 716 µg/mL (≈ 1550 µM). The MBC against Escherichia coli [4] was determined as 2870 µg/mL (≈ 6200 µM); against Bacillus cereus it was 716 µg/mL (≈ 1550 µM); in the test on Pseudomonas aeruginosa it was 2870 µg/mL (≈ 6200 µM); in the test with Klebsiella pneumoniae [5] it was 1430 µg/mL (≈ 3100 µM); against Staphylococcus aureus [6] it was 5740 µg/mL (≈ 12400 µM); against Escherichia coli [7], 5740 µg/mL (≈ 12400 µM). The minimal bactericidal concentration (MBC) with Trueperella pyogenes was 1430 µg/mL (≈ 3100 µM); against Bacillus subtilis, 2870 µg/mL (≈ 6200 µM); with Staphylococcus aureus [8] it was 716 µg/mL (≈ 1550 µM). Besides, the MIC was 358 µg/mL (≈ 774 µM) against Escherichia coli [1]; more than 5740 µg/mL in the test with Acremonium chrysogenum; 179 µg/mL (≈ 387 µM) against Salmonella enterica; 45 µg/mL (≈ 97.3 µM) in the test with Micrococcus luteus; 179 µg/mL (≈ 387 µM) against Proteus vulgaris; 358 µg/mL (≈ 774 µM) in the test on Candida albicans (ATCC 10231, 48 h). For the same compound, the minimal inhibitory concentration (MIC) in the test with Staphylococcus aureus [2] is 22 µg/mL (≈ 47.6 µM); in the test on Klebsiella pneumoniae [3], 45 µg/mL (≈ 97.3 µM); in the test on Saccharomyces cerevisiae (ATCC 9763, 48 h), 89 µg/mL (≈ 192 µM); against Aspergillus restrictus, 1430 µg/mL (≈ 3100 µM); against Escherichia coli [4] it was 179 µg/mL (≈ 387 µM); against Bacillus cereus, 89 µg/mL (≈ 192 µM). Also, the minimum inhibitory concentration (MIC) with Pseudomonas aeruginosa stood at 358 µg/mL (≈ 774 µM); against Aspergillus fumigatus, 89 µg/mL (≈ 192 µM); against Klebsiella pneumoniae [5], 179 µg/mL (≈ 387 µM); against Staphylococcus aureus [6], 179 µg/mL (≈ 387 µM); in the test on Escherichia coli [7], 716 µg/mL (≈ 1550 µM); against Trueperella pyogenes, 179 µg/mL (≈ 387 µM). The MIC turned out to be 179 µg/mL (≈ 387 µM) against Bacillus subtilis, 1430 µg/mL (≈ 3100 µM) with Penicillium chrysogenum and 22 µg/mL (≈ 47.6 µM) in the test with Staphylococcus aureus [8]. In addition, the minimal fungicidal concentration (MFC) is more than 5740 µg/mL in the test with Acremonium chrysogenum; 1430 µg/mL (≈ 3100 µM) against Candida albicans (ATCC 10231, 48 h); 89 µg/mL (≈ 192 µM) against Saccharomyces cerevisiae (ATCC 9763, 48 h); 2870 µg/mL (≈ 6200 µM) in the test on Aspergillus restrictus; 358 µg/mL (≈ 774 µM) against Aspergillus fumigatus; 2870 µg/mL (≈ 6200 µM) against Penicillium chrysogenum.
For the compound `CN(C)[C@@H]1C(O)=C(C(N)=O)C(=O)[C@@]2(O)C(O)=C3C(=O)c4c(O)cccc4[C@@](C)(O)[C@H]3C[C@@H]12` [TETRACYCLINE], the minimal inhibitory concentration (MIC) against Escherichia coli [1] stood at 0.195 µg/mL (≈ 0.439 µM); against Salmonella enterica, 0.195 µg/mL (≈ 0.439 µM); against Micrococcus luteus, 0.39 µg/mL (≈ 0.878 µM); in the test with Proteus vulgaris it was 0.39 µg/mL (≈ 0.878 µM); against Staphylococcus aureus [2] it was 0.098 µg/mL (≈ 0.221 µM); against Klebsiella pneumoniae [3], 0.39 µg/mL (≈ 0.878 µM). Moreover, the MIC against Escherichia coli [4] is 1.56 µg/mL (≈ 3.51 µM); with Bacillus cereus it was 0.195 µg/mL (≈ 0.439 µM); against Pseudomonas aeruginosa, 1.56 µg/mL (≈ 3.51 µM); in the test on Klebsiella pneumoniae [5], 0.39 µg/mL (≈ 0.878 µM); in the test on Staphylococcus aureus [6], 0.098 µg/mL (≈ 0.221 µM); in the test on Escherichia coli [7], 1.56 µg/mL (≈ 3.51 µM). Further, the MIC worked out at 1.56 µg/mL (≈ 3.51 µM) with Trueperella pyogenes, 0.195 µg/mL (≈ 0.439 µM) in the test on Bacillus subtilis and 0.098 µg/mL (≈ 0.221 µM) in the test on Staphylococcus aureus [8].
